According to ChEMBL document CHEMBL4507276 (2021):

Legend:
[1] = target: Serine/threonine-protein kinase PLK1 (Homo sapiens) (UniProt P53350); test: PLK1 Invitrogen selectivity data (BI); settings: Compound concentration 3.0 uM
[2] = target: Myosin light chain kinase 2, skeletal/cardiac muscle (Homo sapiens) (UniProt Q9H1R3); test: MYLK2 Invitrogen selectivity data (BI); settings: Compound concentration 3.0 uM
[3] = target: Dual specificity mitogen-activated protein kinase kinase 2 (Homo sapiens) (UniProt P36507); test: MAP2K2 Invitrogen selectivity data (BI); settings: Compound concentration 3.0 uM
[4] = target: Protein kinase C gamma type (Homo sapiens) (UniProt P05129); test: PRKCG Invitrogen selectivity data (BI); settings: Compound concentration 3.0 uM
[5] = target: T1, NUAK family SNF1-like kinase 1 (Homo sapiens) (UniProt O60285); test: NUAK1 Invitrogen selectivity data (BI); settings: Compound concentration 3.0 uM
T1 sequence (whole entry): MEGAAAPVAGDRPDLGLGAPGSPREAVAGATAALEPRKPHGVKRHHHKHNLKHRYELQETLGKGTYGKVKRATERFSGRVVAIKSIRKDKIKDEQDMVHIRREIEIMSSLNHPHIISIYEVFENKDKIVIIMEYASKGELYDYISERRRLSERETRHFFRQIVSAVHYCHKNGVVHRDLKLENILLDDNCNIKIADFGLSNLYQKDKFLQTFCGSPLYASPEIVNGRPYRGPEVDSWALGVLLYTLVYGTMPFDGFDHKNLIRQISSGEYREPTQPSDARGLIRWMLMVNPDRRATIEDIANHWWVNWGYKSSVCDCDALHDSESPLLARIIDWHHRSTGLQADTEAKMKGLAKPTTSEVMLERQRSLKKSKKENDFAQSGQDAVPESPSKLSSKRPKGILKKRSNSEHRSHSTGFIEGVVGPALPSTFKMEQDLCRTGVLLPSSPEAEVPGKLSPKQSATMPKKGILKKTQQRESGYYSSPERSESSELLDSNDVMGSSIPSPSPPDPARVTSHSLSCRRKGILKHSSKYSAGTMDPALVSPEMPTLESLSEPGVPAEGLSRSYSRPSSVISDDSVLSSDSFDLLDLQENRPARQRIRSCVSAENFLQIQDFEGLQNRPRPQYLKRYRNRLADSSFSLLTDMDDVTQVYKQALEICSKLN

[6] = target: Substance-P receptor (Homo sapiens) (UniProt P25103); test: NK1/HU Eurofins-Panlabs selectivity data (BI); settings: Compound concentration 10.0 uM
[7] = target: RAF proto-oncogene serine/threonine-protein kinase (Homo sapiens) (UniProt P04049); test: RAF1 Invitrogen selectivity data (BI); settings: Compound concentration 3.0 uM
[8] = target: PI3-kinase p110-alpha/p85-alpha (Homo sapiens) (UniProt P27986+P42336); test: PIK3CAPIK3R1 Invitrogen selectivity data (BI); type: protein-complex assay; settings: Compound concentration 3.0 uM
[9] = target: Mitogen-activated protein kinase 11 (Homo sapiens) (UniProt Q15759); test: MAPK11 Invitrogen selectivity data (BI); settings: Compound concentration 3.0 uM
[10] = target: T2, Homeodomain-interacting protein kinase 4 (Homo sapiens) (UniProt Q8NE63); test: HIPK4 Invitrogen selectivity data (BI); settings: Compound concentration 3.0 uM
T2 sequence (whole entry): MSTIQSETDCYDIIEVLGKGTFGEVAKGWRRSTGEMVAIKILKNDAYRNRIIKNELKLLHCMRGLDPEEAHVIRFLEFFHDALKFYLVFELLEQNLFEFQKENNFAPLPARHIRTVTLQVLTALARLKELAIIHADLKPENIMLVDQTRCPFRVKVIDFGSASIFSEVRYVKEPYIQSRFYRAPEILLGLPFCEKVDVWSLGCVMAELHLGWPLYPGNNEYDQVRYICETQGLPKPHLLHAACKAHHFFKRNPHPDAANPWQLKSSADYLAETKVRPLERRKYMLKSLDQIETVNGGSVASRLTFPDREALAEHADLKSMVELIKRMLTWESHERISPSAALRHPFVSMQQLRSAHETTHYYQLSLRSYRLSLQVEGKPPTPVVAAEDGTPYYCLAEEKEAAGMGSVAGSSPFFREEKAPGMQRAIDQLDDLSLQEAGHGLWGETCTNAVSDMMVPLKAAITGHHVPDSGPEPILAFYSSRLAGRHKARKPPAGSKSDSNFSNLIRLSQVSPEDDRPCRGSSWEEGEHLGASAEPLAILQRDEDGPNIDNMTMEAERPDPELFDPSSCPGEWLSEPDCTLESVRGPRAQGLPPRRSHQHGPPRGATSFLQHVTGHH

[11] = target: Adenosine receptor A2a (Homo sapiens) (UniProt P29274); test: A2A/HU Eurofins-Panlabs selectivity data (BI); settings: Compound concentration 10.0 uM
[12] = target: Gamma-aminobutyric acid receptor subunit alpha-1 (Rattus norvegicus) (UniProt P62813); test: GABAACENTR Eurofins-Panlabs selectivity data (BI); settings: Compound concentration 10.0 uM
[13] = target: Protein kinase C alpha type (Mus musculus) (UniProt P20444); test: PHORBOLE/M Eurofins-Panlabs selectivity data (BI); settings: Compound concentration 10.0 uM
[14] = target: Kappa-type opioid receptor (Rattus norvegicus) (UniProt P34975); test: KAPPA/R Cerep selectivity data (BI); settings: Compound concentration 20.0 uM
[15] = target: Cyclin-dependent kinase 2/cyclin A (Homo sapiens) (UniProt P24941+P20248+P78396); test: CDK2(CYCA)_CE Cerep selectivity data (BI); type: protein-complex assay; settings: Compound concentration 20.0 uM
[16] = target: Phosphorylase b kinase gamma catalytic chain, liver/testis isoform (Homo sapiens) (UniProt P15735); test: PHKG2 Invitrogen selectivity data (BI); settings: Compound concentration 3.0 uM
[17] = target: T3, Serine/threonine-protein kinase haspin (Homo sapiens) (UniProt Q8TF76); test: GSG2 Invitrogen selectivity data (BI); settings: Compound concentration 3.0 uM
T3 sequence (whole entry): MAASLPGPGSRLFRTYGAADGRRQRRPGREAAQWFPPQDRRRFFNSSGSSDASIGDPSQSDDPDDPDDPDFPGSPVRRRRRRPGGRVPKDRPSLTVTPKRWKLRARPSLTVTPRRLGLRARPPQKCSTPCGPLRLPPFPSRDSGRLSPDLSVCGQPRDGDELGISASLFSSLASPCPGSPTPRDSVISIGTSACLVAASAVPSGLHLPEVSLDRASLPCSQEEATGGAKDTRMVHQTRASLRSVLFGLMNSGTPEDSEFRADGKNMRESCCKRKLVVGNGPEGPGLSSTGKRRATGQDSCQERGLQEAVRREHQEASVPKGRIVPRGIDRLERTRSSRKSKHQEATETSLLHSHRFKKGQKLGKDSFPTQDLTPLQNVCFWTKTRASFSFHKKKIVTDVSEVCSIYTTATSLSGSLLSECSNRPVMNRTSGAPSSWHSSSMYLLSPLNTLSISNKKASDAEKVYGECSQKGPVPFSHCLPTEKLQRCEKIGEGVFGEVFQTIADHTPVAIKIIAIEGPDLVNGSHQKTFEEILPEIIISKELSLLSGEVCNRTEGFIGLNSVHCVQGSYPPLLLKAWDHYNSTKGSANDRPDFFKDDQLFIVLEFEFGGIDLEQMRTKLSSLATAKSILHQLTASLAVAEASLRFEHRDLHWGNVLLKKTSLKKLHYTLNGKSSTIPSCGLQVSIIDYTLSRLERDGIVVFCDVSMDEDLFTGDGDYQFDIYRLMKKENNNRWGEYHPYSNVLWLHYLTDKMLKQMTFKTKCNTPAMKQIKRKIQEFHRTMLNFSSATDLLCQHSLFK

Measured: residual activity

Sequence of Substance-P receptor (Homo sapiens) (P25103 whole entry): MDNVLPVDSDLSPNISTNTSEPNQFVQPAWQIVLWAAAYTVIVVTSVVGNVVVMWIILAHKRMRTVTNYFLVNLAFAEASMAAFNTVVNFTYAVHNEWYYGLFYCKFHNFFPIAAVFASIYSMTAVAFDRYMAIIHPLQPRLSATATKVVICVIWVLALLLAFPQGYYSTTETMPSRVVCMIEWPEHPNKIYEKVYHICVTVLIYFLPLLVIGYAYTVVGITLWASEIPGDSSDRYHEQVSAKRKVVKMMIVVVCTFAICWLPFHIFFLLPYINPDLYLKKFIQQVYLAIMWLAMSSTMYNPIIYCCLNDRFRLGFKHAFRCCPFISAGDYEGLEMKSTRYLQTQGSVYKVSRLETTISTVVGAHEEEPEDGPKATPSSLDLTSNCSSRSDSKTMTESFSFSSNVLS
Sequence of Kappa-type opioid receptor (Rattus norvegicus) (P34975 whole entry): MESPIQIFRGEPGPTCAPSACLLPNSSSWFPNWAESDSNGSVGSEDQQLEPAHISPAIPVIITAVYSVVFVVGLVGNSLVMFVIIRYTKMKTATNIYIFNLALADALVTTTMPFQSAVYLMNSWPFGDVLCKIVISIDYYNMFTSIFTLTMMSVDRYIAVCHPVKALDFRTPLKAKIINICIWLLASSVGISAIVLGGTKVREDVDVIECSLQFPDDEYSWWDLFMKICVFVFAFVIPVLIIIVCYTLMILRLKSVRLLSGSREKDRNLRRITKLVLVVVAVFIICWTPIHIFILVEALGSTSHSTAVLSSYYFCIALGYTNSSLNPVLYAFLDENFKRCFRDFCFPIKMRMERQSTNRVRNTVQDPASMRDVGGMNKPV
Sequence of RAF proto-oncogene serine/threonine-protein kinase (Homo sapiens) (P04049 whole entry): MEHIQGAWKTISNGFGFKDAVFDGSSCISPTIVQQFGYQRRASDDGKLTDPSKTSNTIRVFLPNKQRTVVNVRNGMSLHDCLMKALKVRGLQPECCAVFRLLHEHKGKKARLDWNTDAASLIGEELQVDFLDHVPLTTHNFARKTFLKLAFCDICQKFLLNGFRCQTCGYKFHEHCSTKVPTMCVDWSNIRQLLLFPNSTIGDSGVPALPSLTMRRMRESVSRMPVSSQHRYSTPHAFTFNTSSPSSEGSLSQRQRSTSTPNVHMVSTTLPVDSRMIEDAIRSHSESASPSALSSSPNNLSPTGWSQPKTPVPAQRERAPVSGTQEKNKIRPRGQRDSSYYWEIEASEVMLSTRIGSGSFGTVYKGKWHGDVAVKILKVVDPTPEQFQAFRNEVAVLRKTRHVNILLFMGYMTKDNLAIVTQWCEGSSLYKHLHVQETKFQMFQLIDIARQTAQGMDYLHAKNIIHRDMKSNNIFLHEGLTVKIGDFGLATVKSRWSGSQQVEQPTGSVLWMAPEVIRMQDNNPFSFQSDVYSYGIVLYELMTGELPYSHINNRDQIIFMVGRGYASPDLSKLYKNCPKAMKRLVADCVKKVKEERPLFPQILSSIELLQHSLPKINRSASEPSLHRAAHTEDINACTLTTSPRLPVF
Sequence of Myosin light chain kinase 2, skeletal/cardiac muscle (Homo sapiens) (Q9H1R3 whole entry): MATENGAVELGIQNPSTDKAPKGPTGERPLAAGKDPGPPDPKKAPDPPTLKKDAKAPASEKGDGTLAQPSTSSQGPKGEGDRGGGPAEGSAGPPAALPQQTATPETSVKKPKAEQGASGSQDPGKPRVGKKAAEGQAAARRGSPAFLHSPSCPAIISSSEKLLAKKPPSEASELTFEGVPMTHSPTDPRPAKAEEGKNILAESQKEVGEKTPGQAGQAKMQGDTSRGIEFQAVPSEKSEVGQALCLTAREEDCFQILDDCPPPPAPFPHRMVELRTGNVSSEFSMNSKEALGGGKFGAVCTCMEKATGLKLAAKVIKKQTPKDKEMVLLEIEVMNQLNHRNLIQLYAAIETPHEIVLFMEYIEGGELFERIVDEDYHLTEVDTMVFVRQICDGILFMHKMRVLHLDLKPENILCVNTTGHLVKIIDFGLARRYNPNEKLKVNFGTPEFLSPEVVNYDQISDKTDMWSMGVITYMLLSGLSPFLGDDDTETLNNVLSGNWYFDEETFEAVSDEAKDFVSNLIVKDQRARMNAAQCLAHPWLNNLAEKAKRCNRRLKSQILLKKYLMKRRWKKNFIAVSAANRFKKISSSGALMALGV
Sequence of Dual specificity mitogen-activated protein kinase kinase 2 (Homo sapiens) (P36507 whole entry): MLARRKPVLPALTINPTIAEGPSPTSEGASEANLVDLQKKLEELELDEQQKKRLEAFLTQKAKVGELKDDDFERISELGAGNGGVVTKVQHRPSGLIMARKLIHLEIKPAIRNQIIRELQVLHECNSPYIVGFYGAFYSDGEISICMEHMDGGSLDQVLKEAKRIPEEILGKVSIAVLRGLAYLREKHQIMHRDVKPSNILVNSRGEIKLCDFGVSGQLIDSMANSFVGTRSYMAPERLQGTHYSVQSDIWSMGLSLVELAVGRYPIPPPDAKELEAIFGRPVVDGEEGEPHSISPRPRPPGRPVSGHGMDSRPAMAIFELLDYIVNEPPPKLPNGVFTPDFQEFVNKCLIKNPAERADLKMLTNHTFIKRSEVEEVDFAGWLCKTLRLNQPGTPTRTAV
Sequence of Adenosine receptor A2a (Homo sapiens) (P29274 whole entry): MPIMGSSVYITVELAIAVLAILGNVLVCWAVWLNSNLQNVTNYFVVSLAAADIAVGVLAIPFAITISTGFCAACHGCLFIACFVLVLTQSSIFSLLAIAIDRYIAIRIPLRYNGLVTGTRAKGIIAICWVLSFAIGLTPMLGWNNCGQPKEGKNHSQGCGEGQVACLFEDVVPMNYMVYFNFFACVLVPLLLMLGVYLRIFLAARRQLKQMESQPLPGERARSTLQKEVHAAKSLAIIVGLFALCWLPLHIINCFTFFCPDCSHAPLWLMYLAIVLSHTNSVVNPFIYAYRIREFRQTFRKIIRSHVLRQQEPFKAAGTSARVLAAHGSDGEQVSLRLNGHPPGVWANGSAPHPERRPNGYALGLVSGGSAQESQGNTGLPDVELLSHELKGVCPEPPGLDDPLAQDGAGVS
Sequence of Mitogen-activated protein kinase 11 (Homo sapiens) (Q15759 whole entry): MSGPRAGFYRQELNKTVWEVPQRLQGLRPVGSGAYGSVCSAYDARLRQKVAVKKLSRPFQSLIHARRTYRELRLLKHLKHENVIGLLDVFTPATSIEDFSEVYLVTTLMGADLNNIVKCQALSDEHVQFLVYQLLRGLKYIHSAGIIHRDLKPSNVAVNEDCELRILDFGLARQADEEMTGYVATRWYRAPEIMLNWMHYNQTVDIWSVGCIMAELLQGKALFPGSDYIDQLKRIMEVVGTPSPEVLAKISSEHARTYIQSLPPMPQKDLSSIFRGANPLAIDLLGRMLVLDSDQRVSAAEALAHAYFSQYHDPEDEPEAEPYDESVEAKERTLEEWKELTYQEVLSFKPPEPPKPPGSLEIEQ
Sequence of Phosphorylase b kinase gamma catalytic chain, liver/testis isoform (Homo sapiens) (P15735 whole entry, looked up, canonical isoform): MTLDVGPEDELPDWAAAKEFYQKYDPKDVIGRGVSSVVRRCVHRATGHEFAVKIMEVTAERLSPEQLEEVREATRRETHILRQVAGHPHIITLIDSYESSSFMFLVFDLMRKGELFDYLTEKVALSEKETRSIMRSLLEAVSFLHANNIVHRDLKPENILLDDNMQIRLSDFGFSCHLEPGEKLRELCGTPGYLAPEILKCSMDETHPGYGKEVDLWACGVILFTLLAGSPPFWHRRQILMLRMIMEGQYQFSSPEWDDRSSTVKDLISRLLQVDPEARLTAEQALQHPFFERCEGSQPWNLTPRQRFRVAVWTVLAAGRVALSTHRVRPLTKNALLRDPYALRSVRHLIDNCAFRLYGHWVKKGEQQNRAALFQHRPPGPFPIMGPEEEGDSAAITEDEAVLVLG

CN(C)C(=O)Cn1cc(-c2nc([C@@](C)(c3ccc(-c4cnc(N)nc4)cc3)C3CC3)no2)cn1 [BI 665915]
inactive: [1] 97% | [2] 89.5% | [3] 96% | [4] 100% | [5] 96% | [6] 104% | [7] 97% | [8] 104% | [9] 93% | [10] 98.5% | [11] 105% | [12] 115% | [13] 104% | [14] 91% | [15] 118% | [16] 97.5% | [17] 100%
